From ChEMBL document CHEMBL1177848, “Synthesis of novel 6,6a,7,8-tetrahydro-5H-naphtho[1,2-e]pyrimido[4,5-b][1,4]diazepines under microwave irradiation as potential anti-tumor agents” (2010)
Activity calls are given as the source filed them. The calls are words filed in the database; no cut-off is given here.

How the values were obtained:
[1] = tested on: RPMI-8226; assay: Growth inhibition of human RPMI8226 cells at 1 uM after 48 hrs by sulforhodamine B assay; format: functional, cell-based
[2] = tested on: HCT-15; assay: Growth inhibition of human HCT15 cells after 48 hrs by sulforhodamine B assay; format: functional; settings: HCT-15, 48 h
[3] = tested on: COLO 205; assay: Growth inhibition of human COLO205 cells at 1 uM after 48 hrs by sulforhodamine B assay; format: functional, cell-based
[4] = tested on: RPMI-8226; assay: Growth inhibition of human RPMI8226 cells after 48 hrs by sulforhodamine B assay; format: functional; settings: RPMI-8226, 48 h
[5] = tested on: EKVX; assay: Growth inhibition of human EKVX cells at 1 uM after 48 hrs by sulforhodamine B assay; format: functional, cell-based
[6] = tested on: UACC-62; assay: Growth inhibition of human UACC62 cells after 48 hrs by sulforhodamine B assay; format: functional; settings: UACC-62, 48 h
[7] = tested on: SF-539; assay: Growth inhibition of human SF539 cells at 1 uM after 48 hrs by sulforhodamine B assay; format: functional, cell-based
[8] = tested on: SN12C; assay: Growth inhibition of human SN12C cells at 1 uM after 48 hrs by sulforhodamine B assay; format: functional, cell-based
[9] = tested on: UACC-257; assay: Growth inhibition of human UACC257 cells after 48 hrs by sulforhodamine B assay; format: functional; settings: UACC-257, 48 h
[10] = tested on: NCI-H460; assay: Growth inhibition of human NCI-H460 cells at 1 uM after 48 hrs by sulforhodamine B assay; format: functional, cell-based
[11] = tested on: TK-10; assay: Growth inhibition of human TK10 cells at 1 uM after 48 hrs by sulforhodamine B assay; format: functional, cell-based
[12] = tested on: HCT-116; assay: Growth inhibition of human HCT116 cells at 1 uM after 48 hrs by sulforhodamine B assay; format: functional, cell-based
[13] = tested on: A498; assay: Growth inhibition of human A498 cells after 48 hrs by sulforhodamine B assay; format: functional; settings: A498, 48 h
[14] = tested on: K562; assay: Growth inhibition of human K562 cells at 1 uM after 48 hrs by sulforhodamine B assay; format: functional, cell-based
[15] = tested on: T47D; assay: Growth inhibition of human T47D cells at 1 uM after 48 hrs by sulforhodamine B assay; format: functional, cell-based
[16] = tested on: A498; assay: Growth inhibition of human A498 cells at 1 uM after 48 hrs by sulforhodamine B assay; format: functional, cell-based
[17] = tested on: LOX IMVI; assay: Growth inhibition of human LOXIMVI cells at 1 uM after 48 hrs by sulforhodamine B assay; format: functional, cell-based
[18] = tested on: RXF 393; assay: Growth inhibition of human RXF393 cells at 1 uM after 48 hrs by sulforhodamine B assay; format: functional, cell-based
[19] = tested on: HT-29; assay: Growth inhibition of human HT-29 cells at 1 uM after 48 hrs by sulforhodamine B assay; format: functional, cell-based
[20] = tested on: HCT-116; assay: Growth inhibition of human HCT116 cells after 48 hrs by sulforhodamine B assay; format: functional; settings: HCT-116, 48 h
[21] = tested on: SK-MEL-5; assay: Growth inhibition of human SK-MEL-5 cells after 48 hrs by sulforhodamine B assay; format: functional; settings: SK-MEL-5, 48 h
[22] = tested on: KM12; assay: Growth inhibition of human KM12 cells after 48 hrs by sulforhodamine B assay; format: functional; settings: KM12, 48 h
[23] = tested on: SF530; assay: Growth inhibition of human SF530 cells at 1 uM after 48 hrs by sulforhodamine B assay; format: functional, cell-based
[24] = tested on: ACHN; assay: Growth inhibition of human ACHN cells after 48 hrs by sulforhodamine B assay; format: functional
[25] = tested on: Malme-3M; assay: Growth inhibition of human MALME-3M cells after 48 hrs by sulforhodamine B assay; format: functional
[26] = tested on: DU-145; assay: Growth inhibition of human DU145 cells at 1 uM after 48 hrs by sulforhodamine B assay; format: functional, cell-based
[27] = tested on: MDA-MB-435; assay: Growth inhibition of human MDA-MB-435 cells after 48 hrs by sulforhodamine B assay; format: functional; settings: MDA-MB-435, 48 h
[28] = tested on: NCI-H23; assay: Growth inhibition of human NCI-H23 cells at 1 uM after 48 hrs by sulforhodamine B assay; format: functional, cell-based
[29] = tested on: NCI-H226; assay: Growth inhibition of human NCI-H226 cells after 48 hrs by sulforhodamine B assay; format: functional; settings: NCI-H226, 48 h
[30] = tested on: MDA-MB-231; assay: Growth inhibition of human MDA-MB-231 cells after 48 hrs by sulforhodamine B assay; format: functional; settings: MDA-MB-231, 48 h
[31] = tested on: SW-620; assay: Growth inhibition of human SW620 cells after 48 hrs by sulforhodamine B assay; format: functional; settings: SW-620, 48 h
[32] = tested on: SR; assay: Growth inhibition of human SR cells at 1 uM after 48 hrs by sulforhodamine B assay; format: functional, cell-based
[33] = tested on: ACHN; assay: Growth inhibition of human ACHN cells at 1 uM after 48 hrs by sulforhodamine B assay; format: functional, cell-based
[34] = tested on: MOLT-4; assay: Growth inhibition of human MOLT4 cells at 1 uM after 48 hrs by sulforhodamine B assay; format: functional, cell-based
[35] = tested on: SN12C; assay: Growth inhibition of human SN12C cells after 48 hrs by sulforhodamine B assay; format: functional
[36] = tested on: NCI-H460; assay: Growth inhibition of human NCI-H460 cells after 48 hrs by sulforhodamine B assay; format: functional; settings: NCI-H460, 48 h
[37] = tested on: HT-29; assay: Growth inhibition of human HT-29 cells after 48 hrs by sulforhodamine B assay; format: functional; settings: HT-29, 48 h
[38] = tested on: BT-549; assay: Growth inhibition of human BT549 cells at 1 uM after 48 hrs by sulforhodamine B assay; format: functional, cell-based
[39] = tested on: MDA-MB-231; assay: Growth inhibition of human MDA-MB-231 cells at 1 uM after 48 hrs by sulforhodamine B assay; format: functional, cell-based
[40] = tested on: OVCAR-8; assay: Growth inhibition of human OVCAR8 cells at 1 uM after 48 hrs by sulforhodamine B assay; format: functional, cell-based
[41] = tested on: TK-10; assay: Growth inhibition of human TK10 cells after 48 hrs by sulforhodamine B assay; format: functional; settings: TK-10, 48 h
[42] = tested on: SK-MEL-28; assay: Growth inhibition of human SK-MEL-28 cells at 1 uM after 48 hrs by sulforhodamine B assay; format: functional, cell-based
[43] = tested on: U-251; assay: Growth inhibition of human U251 cells after 48 hrs by sulforhodamine B assay; format: functional; settings: U-251, 48 h
[44] = tested on: SF-295; assay: Growth inhibition of human SF295 cells after 48 hrs by sulforhodamine B assay; format: functional; settings: SF-295, 48 h
[45] = tested on: COLO 205; assay: Growth inhibition of human COLO205 cells after 48 hrs by sulforhodamine B assay; format: functional; settings: COLO 205, 48 h
[46] = tested on: MDA-MB-468; assay: Growth inhibition of human MDA-MB-468 cells at 1 uM after 48 hrs by sulforhodamine B assay; format: functional, cell-based
[47] = read-out: LC50 (the source's name)

For Nc1nc(N)c2c(n1)NC(c1ccc(F)cc1)C1CCc3ccccc3C1=N2 (configuration not stated), the “growth inhibition (GI)” value [1] was “inactive”, the GI50 [2] was 3.99 µM and the LC50 [2] was 43 µM. For the same compound, the “growth inhibition (GI)” value [3] was “inactive”, the GI50 [4] was 1.81 µM and the LC50 [4] was 62.8 µM. The “growth inhibition (GI)” value [5] was “inactive”, the GI50 [6] was 3.76 µM and the LC50 [6] was 42.1 µM. The “growth inhibition (GI)” value [7] was “inactive”, the “growth inhibition (GI)” value [8] was “inactive” and the GI50 [9] was 5.37 µM. The CC50 [9, 47] was 43.3 µM, the “growth inhibition (GI)” value [10] was “inactive” and the “growth inhibition (GI)” value [11] was “inactive”. The “growth inhibition (GI)” value [12] was “inactive”, the GI50 [13] was 2.87 µM and the LC50 [13] was 30.6 µM. For the same compound, the “growth inhibition (GI)” value [14] was “inactive”, the “growth inhibition (GI)” value [15] was “inactive” and the “growth inhibition (GI)” value [16] was “inactive”. For the same compound, the “growth inhibition (GI)” value [17] was “inactive”, the “growth inhibition (GI)” value [18] was “inactive” and the “growth inhibition (GI)” value [19] was “inactive”. For the same compound, the GI50 [20] was 3.04 µM, the LC50 [20] was 34.5 µM and the GI50 [21] was 0.609 µM. It also gave an LC50 [21] of 6.03 µM, a GI50 [22] of 4.93 µM and an LC50 (concentration killing 50% of cells) [22] of 43.1 µM. The “growth inhibition (GI)” value [23] was “inactive”, the GI50 [24] was 4.96 µM and the LC50 (50% lethal concentration) [24] was 42.2 µM. The GI50 [25] was 2.52 µM, the LC50 [25] was 68.6 µM and the “growth inhibition (GI)” value [26] was “inactive”. For the same compound, the GI50 [27] was 2.84 µM, the LC50 (concentration killing 50% of cells) [27] was 35.1 µM and the “growth inhibition (GI)” value [28] was “inactive”. It also gave a GI50 [29] of 5.97 µM, an LC50 [29] of 74.4 µM and a GI50 [30] of 5.8 µM. It also gave a CC50 [30, 47] of 48.5 µM, a GI50 [31] of 4.87 µM and an LC50 [31] of 42.9 µM. The “growth inhibition (GI)” value [32] was “inactive”, the “growth inhibition (GI)” value [33] was “inactive” and the “growth inhibition (GI)” value [34] was “inactive”. The GI50 [35] was 7.8 µM, the CC50 [35, 47] was 50.9 µM and the GI50 [36] was 3.76 µM. It also gave an LC50 [36] of 43.3 µM, a GI50 [37] of 3.84 µM and a CC50 [37, 47] of 38.7 µM. For the same compound, the “growth inhibition (GI)” value [38] was “inactive”, the “growth inhibition (GI)” value [39] was “inactive” and the “growth inhibition (GI)” value [40] was “inactive”. The GI50 [41] was 3.63 µM, the LC50 (50% lethal concentration) [41] was 50.9 µM and the “growth inhibition (GI)” value [42] was “inactive”. For the same compound, the GI50 [43] was 4.29 µM, the LC50 [43] was 44.1 µM and the GI50 [44] was 8.64 µM. It also gave an LC50 (50% lethal concentration) [44] of 59.7 µM, a GI50 [45] of 1.62 µM and an LC50 (50% lethal concentration) [45] of 80.7 µM. The “growth inhibition (GI)” value [46] was “inactive”.
